Laboratory results as given in ChEMBL document CHEMBL4190403, “Design, synthesis, and biological evaluation of pyrazole derivatives containing acetamide bond as potential BRAFV600E inhibitors” (Bioorg Med Chem Lett, 2018).

Key:
[1] = Antiproliferative activity against human WM1361 cells harboring wild-type BRAF after 48 hrs by MTT assay; type: functional, cell-based; settings: WM1361, 48 h
A-375 [2] = assay: Induction of apoptosis in human A375 cells assessed as viable cells at 1 uM after 24 hrs by Annexin V-FITC/propidium iodide staining based flow cytometry (reference value: 90.6 to 94.3%); type: functional; settings: A-375, 24 h, read-out: Activity
A-375 [3] = assay: Induction of apoptosis in human A375 cells assessed as early apoptotic cells at 3 uM after 24 hrs by Annexin V-FITC/propidium iodide staining based flow cytometry (reference value: 1.22 to 1.64%); type: functional
A-375 [4] = assay: Induction of apoptosis in human A375 cells assessed as necrotic cells at 10 uM after 24 hrs by Annexin V-FITC/propidium iodide staining based flow cytometry (reference value: 0.635 to 3.12%); type: functional
A-375 [5] = assay: Induction of apoptosis in human A375 cells assessed as necrotic cells at 3 uM after 36 hrs by Annexin V-FITC/propidium iodide staining based flow cytometry (reference value: 0.635 to 3.12%); type: functional
A-375 [6] = assay: Induction of apoptosis in human A375 cells assessed as viable cells at 3 uM after 36 hrs by Annexin V-FITC/propidium iodide staining based flow cytometry (reference value: 90.6 to 94.3%); type: functional; settings: A-375, 36 h, read-out: Activity
A-375 [7] = assay: Cell cycle arrest in human A375 cells assessed as accumulation at S phase at 1 uM after 24 hrs by propidium iodide staining-based flow cytometry (reference value: 20.08 to 31.09%); type: functional
A-375 [8] = assay: Cell cycle arrest in human A375 cells assessed as accumulation at S phase at 3 uM after 24 hrs by propidium iodide staining-based flow cytometry (reference value: 20.08 to 31.09%); type: functional
A-375 [9] = assay: Cell cycle arrest in human A375 cells assessed as accumulation at G2/M phase at 3 uM after 24 hrs by propidium iodide staining-based flow cytometry (reference value: 7.91 to 21.07%); type: functional
A-375 [10] = assay: Induction of apoptosis in human A375 cells after 24 hrs by Annexin V-FITC/propidium iodide staining based flow cytometry; type: functional, cell-based
A-375 [11] = assay: Induction of apoptosis in human A375 cells at 3 uM by Annexin V-FITC/propidium iodide staining based flow cytometry; type: functional, cell-based; settings: TDE = time-dependent effect
A-375 [12] = assay: Cell cycle arrest in human A375 cells assessed as accumulation at G1 phase at 3 uM by propidium iodide staining-based flow cytometry; type: functional; settings: TDE = time-dependent effect

Question: What does the source list for `COc1ccc(-n2cc(NC(=O)Cn3ccc(-c4cccc(Cl)c4)n3)cn2)cc1`?
Answer: IC50 [1]: 10.2 µM; viability at 1 µM (A-375 [2]): 79.5%; Activity (A-375 [3]): 3.01 - 3.25%; Activity (A-375 [4]): 7.54%; Activity (A-375 [5]): 5.58%; viability at 3 µM (A-375 [6]): 32.8%; Activity (A-375 [7]): 29.07%; Activity (A-375 [8]): 43.96 - 45.74%; Activity (A-375 [9]): 9.69 - 9.82%; Activity (A-375 [10]): Dose-dependent effect; Activity (A-375 [11]): Tde; Activity (A-375 [12]): Tde
